Patent publication US20260271933A1 (priority 2023, published 2026)

What was measured:
Plasmopara viticola = assay: whole plant or invertebrate; type: in vivo; conditions: foliar
Pythium ultimum = Pythium ultimum / liquid culture (seedling damping off); type: cell-based; conditions: Globisporangium ultimum, growth inhibition determined photometrically, compared to untreated control
Description: Pythium ultimum/Liquid Culture (Seedling Damping Off)
Mycelia fragments and oospores of a newly grown liquid culture of the fungus are directly mixed into nutrient broth (PDB potato dextrose broth). After placing a (DMSO) solution of test compound into a microtiter plate (96-well format), the nutrient broth containing the fungal mycelia/spore mixture is added.
The test plates are incubated at 24° C. and the inhibition of growth is determined photometrically 2-3 days after application.

Phytophthora infestans = assay: whole plant or invertebrate; type: in vivo; conditions: in Solanum lycopersicum, foliar, read-out: control of Phytophthora infestans

Row | Compound | pest or weed control at 200 ppm (Plasmopara viticola) | inhibition of growth at 20 ppm (Pythium ultimum) | pest or weed control at 200 ppm (Phytophthora infestans)
1 | COC(=O)Nc1ccc(-c2cnc3c(C)cc(C(=O)N(C)c4cccc5c4OCC5)cn23)cn1 [Compound 1, methyl N-[5-[6-[2,3-dihydrobenzofuran-7-yl(methyl)carbamoyl]-8-methyl-imidazo[1,2-a]pyridin-3-yl]-2-pyridyl]carbamate] | ≥ 80% |  | 
2 | COC(=O)Nc1ccc(-c2cnc3ccc(C(=O)N(C)c4cccc5c4OCC5)cn23)cn1 [Compound 4, methyl N-[5-[6-[2,3-dihydrobenzofuran-7-yl(methyl)carbamoyl]imidazo[1,2-a]pyridin-3-yl]-2-pyridyl]carbamate] | ≥ 80% | ≥ 80% | 
3 | COC(=O)Nc1ccc(-c2cnc3c(C)cc(C(=O)N4CCOc5cc(F)ccc54)cn23)cn1 [Compound 5, methyl N-[5-[6-(7-fluoro-2,3-dihydro-1,4-benzoxazine-4-carbonyl)-8-methyl-imidazo[1,2-a]pyridin-3-yl]-2-pyridyl]carbamate] |  | ≥ 80% | ≥ 80%
4 | COC(=O)Nc1ccc(-c2cnc3ccc(C(=O)N4CCCc5c(C(=O)OC)cccc54)cn23)cn1 [Compound 7, methyl 1-[3-[6-(methoxycarbonylamino)-3-pyridyl]imidazo[1,2-a]pyridine-6-carbonyl]-3,4-dihydro-2H-quinoline-5-carboxylate] | ≥ 80% | ≥ 80% | 
5 | COC(=O)Nc1ccc(-c2cnc3ccc(C(=O)N4CC(C)Cc5ccccc54)cn23)cn1 (stereo not shown) [Compound 8, methyl N-[5-[6-(3-methyl-3,4-dihydro-2H-quinoline-1-carbonyl)imidazo[1,2-a]pyridin-3-yl]-2-pyridyl]carbamate] |  | ≥ 80% | 
6 | COC(=O)Nc1ccc(-c2cnc3ccc(C(=O)N(C)c4cccc(F)c4OC)cn23)cn1 [Compound 12, methyl N-[5-[6-[(3-fluoro-2-methoxy-phenyl)-methyl-carbamoyl]imidazo[1,2-a]pyridin-3-yl]-2-pyridyl]carbamate] |  | ≥ 80% | ≥ 80%
7 | COC(=O)Nc1ccc(-c2cnc3ccc(C(=O)N4CCCc5c(F)cccc54)cn23)cn1 [Compound 13, methyl N-[5-[6-(5-fluoro-3,4-dihydro-2H-quinoline-1-carbonyl)imidazo[1,2-a]pyridin-3-yl]-2-pyridyl]carbamate] |  | ≥ 80% | 
8 | COC(=O)Nc1ccc(-c2cnc3ccc(C(=O)N4c5ccccc5CCC4C)cn23)cn1 (stereo not shown) [Compound 14, methyl N-[5-[6-(2-methyl-3,4-dihydro-2H-quinoline-1-carbonyl)imidazo[1,2-a]pyridin-3-yl]-2-pyridyl]carbamate] |  | ≥ 80% | 
9 | COC(=O)Nc1ccc(-c2cnc3ccc(C(=O)N4CCCc5cc(Cl)cc(F)c54)cn23)cn1 [Compound 17, methyl N-[5-[6-(6-chloro-8-fluoro-3,4-dihydro-2H-quinoline-1-carbonyl)imidazo[1,2-a]pyridin-3-yl]-2-pyridyl]carbamate] |  | ≥ 80% | ≥ 80%
10 | COC(=O)Nc1ccc(-c2cnc3ccc(C(=O)N4CC(O)Cc5cc(F)ccc54)cn23)cn1 (stereo not shown) [Compound 24, methyl N-[5-[6-(6-fluoro-3-hydroxy-3,4-dihydro-2H-quinoline-1-carbonyl)imidazo[1,2-a]pyridin-3-yl]-2-pyridyl]carbamate] |  | ≥ 80% | ≥ 80%
11 | COC(=O)Nc1ccc(-c2cnc3ccc(C(=O)N4CCCc5cc(F)c(F)cc54)cn23)cn1 [Compound 26, methyl N-[5-[6-(6,7-difluoro-3,4-dihydro-2H-quinoline-1-carbonyl)imidazo[1,2-a]pyridin-3-yl]-2-pyridyl]carbamate] |  | ≥ 80% | 
12 | COC(=O)Nc1ccc(-c2cnc3ccc(C(=O)N4CCCc5c(C)cccc54)cn23)cn1 [Compound 27, methyl N-[5-[6-(5-methyl-3,4-dihydro-2H-quinoline-1-carbonyl)imidazo[1,2-a]pyridin-3-yl]-2-pyridyl]carbamate] |  | ≥ 80% | ≥ 80%
13 | COC(=O)Nc1ccc(-c2cnc3ccc(C(=O)N4CCCc5c4ccc(C)c5F)cn23)cn1 [Compound 28, methyl N-[5-[6-(5-fluoro-6-methyl-3,4-dihydro-2H-quinoline-1-carbonyl)imidazo[1,2-a]pyridin-3-yl]-2-pyridyl]carbamate] |  | ≥ 80% | 
14 | COC(=O)Nc1ccc(-c2cnc3ccc(C(=O)N4CC(OC)Cc5ccccc54)cn23)cn1 (stereo not shown) [Compound 32, methyl N-[5-[6-(3-methoxy-3,4-dihydro-2H-quinoline-1-carbonyl)imidazo[1,2-a]pyridin-3-yl]-2-pyridyl]carbamate] |  | ≥ 80% | ≥ 80%
15 | COC(=O)Nc1ccc(-c2cnc3ccc(C(=O)N(C)c4cccc(Cl)c4Cl)cn23)cn1 [Compound 39, methyl N-[5-[6-[(2,3-dichlorophenyl)-methyl-carbamoyl]imidazo[1,2-a]pyridin-3-yl]-2-pyridyl]carbamate] | ≥ 80% |  | 
16 | COC(=O)Nc1ccc(-c2cnc3ccc(C(=O)N4CC(O)Cc5ccccc54)cn23)cn1 (stereo not shown) [Compound 43, methyl N-[5-[6-(3-hydroxy-3,4-dihydro-2H-quinoline-1-carbonyl)imidazo[1,2-a]pyridin-3-yl]-2-pyridyl]carbamate] |  | ≥ 80% | ≥ 80%
17 | COC(=O)Nc1ccc(-c2cnc3ccc(C(=O)N(C)c4ccccc4C(=O)OC)cn23)cn1 [Compound 46, methyl 2-[[3-[6-(methoxycarbonylamino)-3-pyridyl]imidazo[1,2-a]pyridine-6-carbonyl]-methyl-amino]benzoate] |  | ≥ 80% | ≥ 80%
18 | COC(=O)Nc1ccc(-c2cnc3ccc(C(=O)N(C)c4cc(Cl)ccc4C)cn23)cn1 [Compound 47, methyl N-[5-[6-[(5-chloro-2-methyl-phenyl)-methyl-carbamoyl]imidazo[1,2-a]pyridin-3-yl]-2-pyridyl]carbamate] |  | ≥ 80% | 
19 | COC(=O)Nc1ccc(-c2cnc3ccc(C(=O)N4CCCc5cc(Cl)ccc54)cn23)cn1 [Compound 48, methyl N-[5-[6-(6-chloro-3,4-dihydro-2H-quinoline-1-carbonyl)imidazo[1,2-a]pyridin-3-yl]-2-pyridyl]carbamate] |  | ≥ 80% | 
20 | COC(=O)Nc1ccc(-c2cnc3ccc(C(=O)N(C)c4ccc(Cl)cc4F)cn23)cn1 [Compound 53, methyl N-[5-[6-[(4-chloro-2-fluoro-phenyl)-methyl-carbamoyl]imidazo[1,2-a]pyridin-3-yl]-2-pyridyl]carbamate] |  | ≥ 80% | 
21 | COC(=O)Nc1ccc(-c2cnc3ccc(C(=O)N(C)c4cc(F)ccc4F)cn23)cn1 [Compound 54, methyl N-[5-[6-[(2,5-difluorophenyl)-methyl-carbamoyl]imidazo[1,2-a]pyridin-3-yl]-2-pyridyl]carbamate] |  | ≥ 80% | ≥ 80%
22 | COC(=O)Nc1ccc(-c2cnc3ccc(C(=O)N4CCCc5ccc(OC)cc54)cn23)cn1 [Compound 56, methyl N-[5-[6-(7-methoxy-3,4-dihydro-2H-quinoline-1-carbonyl)imidazo[1,2-a]pyridin-3-yl]-2-pyridyl]carbamate] |  | ≥ 80% | 
23 | COC(=O)Nc1ccc(-c2cnc3ccc(C(=O)N4CCCc5c(OC(F)F)cccc54)cn23)cn1 [Compound 58, methyl N-[5-[6-[5-(difluoromethoxy)-3,4-dihydro-2H-quinoline-1-carbonyl]imidazo[1,2-a]pyridin-3-yl]-2-pyridyl]carbamate] |  | ≥ 80% | 
24 | CCN(C(=O)c1ccc2ncc(-c3ccc(NC(=O)OC)nc3)n2c1)c1ccccc1C(=O)OC [Compound 59, methyl 2-[ethyl-[3-[6-(methoxycarbonylamino)-3-pyridyl]imidazo[1,2-a]pyridine-6-carbonyl]amino]benzoate] |  |  | ≥ 80%
25 | COC(=O)Nc1ccc(-c2cnc3ccc(C(=O)N(C)c4ccccc4OC)cn23)cn1 [Compound 60, methyl N-[5-[6-[(2-methoxyphenyl)-methyl-carbamoyl]imidazo[1,2-a]pyridin-3-yl]-2-pyridyl]carbamate] |  | ≥ 80% | 
26 | COC(=O)Nc1ccc(-c2cnc3ccc(C(=O)N(C)c4cc(Cl)ccc4OC)cn23)cn1 [Compound 61, methyl N-[5-[6-[(5-chloro-2-methoxy-phenyl)-methyl-carbamoyl]imidazo[1,2-a]pyridin-3-yl]-2-pyridyl]carbamate] |  | ≥ 80% | 
27 | COC(=O)Nc1ccc(-c2cnc3ccc(C(=O)N4CCCc5c4ccc(F)c5OC)cn23)cn1 [Compound 62, methyl N-[5-[6-(6-fluoro-5-methoxy-3,4-dihydro-2H-quinoline-1-carbonyl)imidazo[1,2-a]pyridin-3-yl]-2-pyridyl]carbamate] |  | ≥ 80% | ≥ 80%
28 | COC(=O)Nc1ccc(-c2cnc3ccc(C(=O)N4CCCc5cc(OC)c(F)cc54)cn23)cn1 [Compound 63, methyl N-[5-[6-(7-fluoro-6-methoxy-3,4-dihydro-2H-quinoline-1-carbonyl)imidazo[1,2-a]pyridin-3-yl]-2-pyridyl]carbamate] |  | ≥ 80% | 
29 | COC(=O)Nc1ccc(-c2cnc3ccc(C(=O)N(C)c4ccc(Cl)cn4)cn23)cn1 [Compound 68, methyl N-[5-[6-[(5-chloro-2-pyridyl)-methyl-carbamoyl]imidazo[1,2-a]pyridin-3-yl]-2-pyridyl]carbamate] |  | ≥ 80% | 
30 | COC(=O)Nc1ccc(-c2cnc3ccc(C(=O)N(C)c4ccc(F)cc4F)cn23)cc1 [Compound 78, methyl N-[4-[6-[(2,4-difluorophenyl)-methyl-carbamoyl]imidazo[1,2-a]pyridin-3-yl]phenyl]carbamate] | ≥ 80% | ≥ 80% | 
